Measurements taken from publication PMC8067754, “Active Transport of Hepatotoxic Pyrrolizidine Alkaloids in HepaRG Cells” (International Journal of Molecular Sciences, 2021).
“And” between values parts separate entries of the source, which are not always exact repeats. Equal entries are not always repeated.

Assays:
SLC22A1 = target: T1, SLC22A1 (Homo sapiens, UniProt O15245); test: ASP+ (SLC22A1 substrate) uptake measurement in HepaRG cells; assay type: cell-based; settings: for fluorescence [%], MW [%]: solv ctrl = 100; for reduction of ASP+ (SLC22A1 substrate) uptake: Qu 100 µM, TEA 3 mM, 1 µM ASP+
T1 construct: For measuring the uptake of ASP^+ in HepaRG cells incubated with PAs; endogenous in cells; host or cells: differentiated HepaRG cells (human hepatoma)
T1 sequence (O15245 1-554): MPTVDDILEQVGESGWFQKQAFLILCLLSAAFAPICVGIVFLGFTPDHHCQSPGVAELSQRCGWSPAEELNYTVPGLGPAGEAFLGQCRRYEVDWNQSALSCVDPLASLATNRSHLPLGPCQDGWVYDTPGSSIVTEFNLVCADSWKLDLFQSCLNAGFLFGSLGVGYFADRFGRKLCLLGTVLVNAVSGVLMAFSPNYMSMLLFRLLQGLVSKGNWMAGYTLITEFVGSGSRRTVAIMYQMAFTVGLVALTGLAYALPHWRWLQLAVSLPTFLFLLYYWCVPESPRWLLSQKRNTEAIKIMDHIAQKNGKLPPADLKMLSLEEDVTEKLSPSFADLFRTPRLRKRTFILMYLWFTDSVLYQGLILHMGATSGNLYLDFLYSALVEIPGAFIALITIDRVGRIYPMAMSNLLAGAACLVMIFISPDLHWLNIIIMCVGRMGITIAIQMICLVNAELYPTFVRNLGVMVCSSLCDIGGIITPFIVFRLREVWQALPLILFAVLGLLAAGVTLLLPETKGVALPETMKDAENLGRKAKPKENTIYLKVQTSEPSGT
Experimental: ASP^+ is an organic cationic mitochondrial dye that only fluoresces inside cells so that fluorescence measured in the cell culture medium can be neglected. […] In parallel, cells were incubated with Qu (100 µM) and TEA (3 mM) as mentioned in Section 4.3. After 24 h, cells were incubated with 1 µM ASP^+ in Hanks’ balanced salt solution (HBSS, Sigma-Aldrich, Taufkirchen, Germany) at 37 °C. Fluorescence was measured after 20 min at ASP^+-specific wavelength (λex = 475 nm and λem = 605 nm) on a TecanM200Pro spectrometer (Tecan Group Ltd., Männedorf, Switzerland) according to Ahlin et al., (2008).

HepaRG cells [1] = test: Cell viability (MTT assay) of HepaRG cells with and without transporter inhibitors; assay type: cell-based, human; settings: HepaRG
Experimental: (§1) In the case of TEA, cells were pre-incubated 24 h prior to PA treatment. The inhibitors were applied anew at PA incubation.
(§2) To analyze the cytotoxic effects of PAs on HepaRG cells with non-inhibited and inhibited hepatic transporters, the cells were seeded at a density of 9000 cells per well in the inner 60 wells of a 96-well plate and cultivated as described in Section 4.2. After four weeks of cultivation, FBS concentration in the cell culture medium was reduced to 2% for 48 h prior incubation. Thereby, inhibitory effects of peptide growth factors from the FBS on xenobiotic-metabolizing enzymes were minimized. […] The cells were pre-incubated with pharmacological inhibitors as described in Section 4.3. […] Cell viability was analyzed via the MTT test. 10 µl MTT reagent (5 mg/mL MTT dissolved in phosphate-buffered saline, PBS) was added per well and incubated for 1 h at 37 °C. The supernatant was discarded, and the violet formazan crystals dissolved in 130 µL desorption solution (0.7% sodium dodecyl sulfate in propan-2-ol). After shaking for 20 min (under protection from light), absorbance was measured on a TecanM200Pro spectrometer (Tecan Group Ltd., Männedorf, Switzerland) at a wavelength of 570 nm, along with a reference wavelength of 630 nm.

HepaRG cells [2] = test: PA and PANO content in cell culture medium of HepaRG cells upon pharmacological transporter inhibition (LC-MS/MS); assay type: in vitro ADME, human; settings: HepaRG, 2.5 µM PA, 4, 8, 24 h; CsA 10 µM, Ko143 5 µM, MK-571 50 µM, Qu 100 µM, TEA 3 mM
Experimental: as §1
(§3) In order to measure time-dependent depletion of PA and PANO content in cell culture medium, cells were seeded at a density of 0.2 × 10^6 cells per well in a 6-well plate and cultivated as described in Section 4.2. After four weeks of cultivation, cells were adapted to serum-free medium and medium substituted with insulin, transferrin, selenium (ITS) serum extender (Capricorn Scientific, Ebsdorfergrund, Germany) 48 h prior to PA incubation for optimal LC-MS/MS measurements. […] Samples were taken after 2 h, 4 h, 8 h and 24 h.
(§4) Briefly, chromatographic separation of PA/PANO analytes was achieved on a 50 × 2.1 mm Kinetex ™ 2.6 μm CoreShell EVO C18 100 Å column protected by a SecurityGuard ™ ULTRA EVO C 18 2.1 mm guard column (both Phenomenex, Aschaffenburg, Germany) at a flow rate of 0.4 mL/min on a Shimadzu high performance liquid chromatography (HPLC) apparatus (LC-20AB, SIL-20AC HT, CTO-20AC, CBM-20A, Duisburg, Germany) coupled to an API4000 triple quadrupole MS (Sciex, Darmstadt, Germany). The following MS parameters were used for measurements in positive electrospray ionisation (ESI+) mode: ionisation voltage 2500 V, nebuliser gas 50 psi, heating gas 50 psi, curtain gas 30 psi, temperature 600 °C, collision gas level 7. The substance specific parameters are summarized in Kaltner et al. 2019 [79].

[3] = Cell viability (MTT assay) of HepaRG cells with and without transporter inhibitors; assay type: cell-based, human; settings: human, HepaRG cells, HepaRG, no PA, inhibitor alone 24 h: CsA 10 µM, Ko143 5 µM, MK571 50 µM, Qu 100 µM, TEA 3 mM; read-out: Cell viability (MTT), percent of solvent control, Mean [%]
Experimental: as §1, §2

HepaRG cells [4] = test: Time-dependent PA depletion and PANO formation in cell culture medium of HepaRG cells at 37 °C and 4 °C (LC-MS/MS); settings: for PA content in cell culture medium, Mean [%]: 700 nM PA, percent of initial PA concentration
Experimental: as §3, §4

retrorsine
fluorescence [%], MW [%] (SLC22A1; 1 µM): 89.2606%
fluorescence [%], MW [%] (SLC22A1; 10 µM): 46.6068%
fluorescence [%], MW [%] (SLC22A1; 50 µM): 25.7608%
fluorescence [%], MW [%] (SLC22A1; 100 µM): 25.133%
fluorescence [%], MW [%] (SLC22A1; 250 µM): 21.5057%
interaction with SLC22A1 (SLC22A1; HepaRG): both inhibitors and substrates
minimum concentration inhibiting uptake of the SLC22A1-specific substrate ASP+ (SLC22A1; HepaRG, 24 h): 10 µM

Triton X-100 [reference compound]
Cell viability (MTT), percent of solvent control (HepaRG cells [1]; 0.01% Triton X-100 positive control, listed as pos ctrl): 2.774%

COc1ccc2c3c([nH]c2c1)[C@H](CC(C)C)N1C(=O)[C@H](CCC(=O)OC(C)(C)C)NC(=O)[C@@H]1C3 [Ko143, reference compound]
effect of inhibitor on retrorsine and senecionine uptake and PANO formation (HepaRG cells [2]): did not alter retrorsine and senecionine uptake and PANO formation
effect of inhibitor on PA-mediated cytotoxicity (HepaRG cells [1]; 250 µM retrorsine or senecionine, MTT, 24 h, versus 250 µM PA only): did not alter the cytotoxic effects of retrorsine and senecionine
Cell viability (MTT), percent of solvent control, Mean [%] (HepaRG cells [1]; no PA, inhibitor alone 24 h: CsA 10 µM, Ko143 5 µM, MK571 50 µM, Qu 100 µM, TEA 3 mM): 98.3595%

CN(C)C(=O)CCSC(SCCC(=O)O)c1cccc(/C=C/c2ccc3ccc(Cl)cc3n2)c1 (stereo not shown) [MK-571, reference compound]
effect of inhibitor on retrorsine and senecionine uptake and PANO formation (HepaRG cells [2]): decelerated retrorsine and senecionine uptake and PANO excretion, but to a lesser extent than CsA
viability at 24 h [3]: 106%

CC[N+](CC)(CC)CC [TEA, tetraethylammonium bromide]
effect of inhibitor on retrorsine and senecionine uptake and PANO formation (HepaRG cells [2]): significantly reduced retrorsine uptake only after 8 and 24 h and senecionine uptake only after 8 h
viability at 24 h [3]: 84.5%
fluorescence [%], MW [%] (SLC22A1; 3mM): 36.1156%
reduction of ASP+ (SLC22A1 substrate) uptake (SLC22A1; HepaRG, 24 h): up to 64%

C=C[C@H]1C[N@@]2CC[C@H]1C[C@@H]2[C@@H](O)c1ccnc2ccc(OC)cc12 [Qu, quinidine]
effect of inhibitor on retrorsine and senecionine uptake and PANO formation (HepaRG cells [2]): striking effect on both retrorsine and senecionine uptake at all time points
viability at 24 h [3]: 87.2%
fluorescence [%], MW [%] (SLC22A1; 100 µM): 82.7588%
reduction of ASP+ (SLC22A1 substrate) uptake (SLC22A1; HepaRG, 24 h): 18%

C/C=C(/C)C(=O)O[C@@H]1CC[N+]2([O-])CC=C(COC(=O)[C@@](O)([C@H](C)O)C(C)(C)O)[C@H]12 (stereo partly shown) [echimidine N-oxide]
PANO formation in cell culture medium (HepaRG cells [4]; HepaRG, 37 °C, 700 nM parent PA, up to 24 h): increased with time

C/C=C(/C)C(=O)O[C@@H]1CCN2CC=C(COC(=O)[C@@](O)([C@H](C)O)C(C)(C)O)[C@H]12 [Echimidine, echimidine]
PA content in cell culture medium, Mean [%] (HepaRG cells [4]; HepaRG, 4 °C (cold), 4h): 98.8433%
PA content in cell culture medium, Mean [%] (HepaRG cells [4]; HepaRG, 4 °C (cold), 24h): 89.3074%
PA content in cell culture medium, Mean [%] (HepaRG cells [4]; HepaRG, 37 °C (warm), 2h): 85.2823%
PA content in cell culture medium, Mean [%] (HepaRG cells [4]; HepaRG, 37 °C (warm), 4h): 68.4318%
PA content in cell culture medium, Mean [%] (HepaRG cells [4]; HepaRG, 37 °C (warm), 8h): 40.2531%
PA content in cell culture medium, Mean [%] (HepaRG cells [4]; HepaRG, 37 °C (warm), 24h): 3.384%
uptake and toxicity (grading) (HepaRG cells [4]; HepaRG, Figure 2a, toxicity grading with ref 41): medium
PA in medium, Mean [%] (HepaRG cells [4]; cold, 0h): 100%
PA in medium, single replicates (repl.) (HepaRG cells [4]; cold, 0h): 100%
PA in medium, Mean [%] (HepaRG cells [4]; cold, 2h): 97.014%
PA in medium, single replicates (repl.) (HepaRG cells [4]; cold, 2h): 86.5736%
PA in medium, Mean [%] (HepaRG cells [4]; cold, 4h): 92.1476%
PA in medium, single replicates (repl.) (HepaRG cells [4]; cold, 4h): 83.0216% and 84.3494%
PA in medium, Mean [%] (HepaRG cells [4]; cold, 8h): 94.8515%
PA in medium, single replicates (repl.) (HepaRG cells [4]; cold, 8h): 82.9788% and 110.397%
PA in medium, Mean [%] (HepaRG cells [4]; cold, 24h): 82.2598%
PA in medium, single replicates (repl.) (HepaRG cells [4]; cold, 24h): 57.2342% and 76.5517%
PA in medium, Mean [%] (HepaRG cells [4]; warm, 0h): 100%
PA in medium, single replicates (repl.) (HepaRG cells [4]; warm, 0h): 100%
PA in medium, Mean [%] (HepaRG cells [4]; warm, 2h): 80.9264%
PA in medium, single replicates (repl.) (HepaRG cells [4]; warm, 2h): 77.0539% and 95.3255%
PA in medium, Mean [%] (HepaRG cells [4]; warm, 4h): 64.0995%
PA in medium, single replicates (repl.) (HepaRG cells [4]; warm, 4h): 50.2783% and 58.3297% and 83.6904%
PA in medium, Mean [%] (HepaRG cells [4]; warm, 8h): 36.9411%
PA in medium, single replicates (repl.) (HepaRG cells [4]; warm, 8h): 23.0433% and 32.0944% and 55.6854%
PA in medium, Mean [%] (HepaRG cells [4]; warm, 24h): 2.921%
PA in medium, single replicates (repl.) (HepaRG cells [4]; warm, 24h): 0.7358% and 1.728% and 6.298%
